These results are taken from PMC8963580, “Biophysical methods in early drug discovery” (ADMET & DMPK, 2019).

The structures appear in SMILES notation.

Assay [1] has as its target T1, 15N-labeled NAD binding domain of PHGDH (Homo sapiens, UniProt O43175).
T1 sequence (O43175 93-298 limits assumed): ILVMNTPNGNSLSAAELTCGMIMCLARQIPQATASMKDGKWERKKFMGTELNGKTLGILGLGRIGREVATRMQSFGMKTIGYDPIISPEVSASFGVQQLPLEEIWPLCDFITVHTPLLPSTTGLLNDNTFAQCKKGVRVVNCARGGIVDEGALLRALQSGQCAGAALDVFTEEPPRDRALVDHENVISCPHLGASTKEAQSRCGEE
The assay can be described thus: 2D NMR binding assay (1H15N-TROSY-HSQC chemical shift titration). Conditions: read-out: Kd (chemical shift change versus compound concentration). The source says: The enzyme 3-phosphohydroxyglycerate dehydrogenase (PHGDH) utilises oxidised ninotinamide dinucleotide (NAD+) and catalyses the conversion of 3-phosphohydroxyglycerate to 3-phosphohydroxypyruvate in humans. The conversion of 3-phosphohydroxyglycerate to 3-phosphohydroxypyruvate is the first, and rate-limiting step, in synthesis of the amino acid serine. Studies have linked PHGDH to the in vivo tumourigenesis in aggressive breast tumours and functional genomics reveal that the serine synthesis pathway is essential in breast cancer. Thus, the druggability of the target was explored with small molecules. To this end a fragment screen of 384 fragments was undertaken using crystal cocktail soaking (mixtures of 4) against the NAD binding domain of PHGDH and 34 hits were identified. The binding affinities of these hits were determined in a 2D NMR binding assay using 15N-labeled NAD binding domain, Figure 6a. […] A simple analogue of an initial crystallography hit (compound 1), the 5-fluoroindole-2-carboxamide (compound 2) bound at a resolution of 1.95 Å in the adenine pocket of the NAD binding site (Figure 6b). The indole NH forms a water-bridged hydrogen bond network with Ser-211, and the 5-fluoro substituent fits nicely into a lipophilic cleft in the binding pocket. […]

In the next assay the target is T2, PHGDH (Homo sapiens, UniProt O43175).
T2 sequence (O43175 1-533): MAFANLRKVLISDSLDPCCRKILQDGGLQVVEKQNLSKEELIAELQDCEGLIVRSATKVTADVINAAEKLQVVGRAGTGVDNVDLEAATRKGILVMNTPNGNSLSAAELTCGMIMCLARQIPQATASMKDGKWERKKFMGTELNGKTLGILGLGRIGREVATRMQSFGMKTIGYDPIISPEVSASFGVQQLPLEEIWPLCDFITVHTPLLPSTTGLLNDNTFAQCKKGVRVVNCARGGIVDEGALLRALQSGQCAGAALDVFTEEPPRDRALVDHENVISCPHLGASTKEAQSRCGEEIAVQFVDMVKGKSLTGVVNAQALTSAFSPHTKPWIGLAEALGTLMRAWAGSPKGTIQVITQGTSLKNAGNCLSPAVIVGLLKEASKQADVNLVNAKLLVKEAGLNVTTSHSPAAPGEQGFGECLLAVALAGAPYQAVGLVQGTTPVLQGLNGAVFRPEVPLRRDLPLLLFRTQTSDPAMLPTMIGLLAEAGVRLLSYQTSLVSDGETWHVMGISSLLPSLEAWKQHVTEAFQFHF
Description: Affinity for PHGDH during fragment optimisation (method not given). Type of assay: binding. The source says:
The enzyme 3-phosphohydroxyglycerate dehydrogenase (PHGDH) utilises oxidised ninotinamide dinucleotide (NAD+) and catalyses the conversion of 3-phosphohydroxyglycerate to 3-phosphohydroxypyruvate in humans. The conversion of 3-phosphohydroxyglycerate to 3-phosphohydroxypyruvate is the first, and rate-limiting step, in synthesis of the amino acid serine. Studies have linked PHGDH to the in vivo tumourigenesis in aggressive breast tumours and functional genomics reveal that the serine synthesis pathway is essential in breast cancer. Thus, the druggability of the target was explored with small molecules. […] The binding affinities of these hits were determined in a 2D NMR binding assay using 15N-labeled NAD binding domain, Figure 6a. […]
Considering this knowledge, a 1D NMR competition assay with NAD+ as the reference compound was developed. […] It is noteworthy that fragments and many of the synthesised analogues had no measurable activity in the human PHGDH protein NAD fluorescence intensity biochemical assay. Whilst the biophysical methods allowed a wide dynamic range of weak mM to sub μM affinities be determined, the biochemical assay could only be used to provide affinities that could drive SAR once those affinities were sub micromolar. […]

The target of a further assay is Apo InhA (Mycobacterium tuberculosis, UniProt P9WGR1). The assay can be described thus: SPR profiling of DEL screening hits, compound injected alone. Type of assay: binding.
A further assay deals with InhA.NADH (Mycobacterium tuberculosis, UniProt P9WGR1). The assay can be described thus: SPR profiling of DEL screening hits, in the presence of 100 μM NADH. Type of assay: binding.
For the next assay, the target named is InhA.NAD+ (Mycobacterium tuberculosis, UniProt P9WGR1). The assay can be described thus: SPR profiling of DEL screening hits, in the presence of 2 mM NAD+. Type of assay: binding.
Assay [2] addresses T3, full length PHGDH (Homo sapiens, UniProt O43175).
T3 sequence (O43175 1-533): T2 sequence (O43175 1-533)
Description: ITC titration. Type of assay: binding.

Assay [3] concerns the target T4, NAD binding domain of PHGDH (Homo sapiens, UniProt O43175).
T4 sequence (O43175 93-298 limits assumed): T1 sequence (O43175 93-298 limits assumed)
The assay can be described thus: SPR titration, steady state fit.

The target of assay [4] is T3, full length PHGDH. The assay can be described thus: SPR titration, steady state fit. Type of assay: binding. An excerpt: Considering this knowledge, a 1D NMR competition assay with NAD+ as the reference compound was developed. This screen employed the more physiologically relevant full length PHGDH protein, to provide continuity for affinity measurement during the subsequent analoguing phase. It is noteworthy that fragments and many of the synthesised analogues had no measurable activity in the human PHGDH protein NAD fluorescence intensity biochemical assay. Whilst the biophysical methods allowed a wide dynamic range of weak mM to sub μM affinities be determined, the biochemical assay could only be used to provide affinities that could drive SAR once those affinities were sub micromolar. In summary, a fragment crystal cocktail screen, supported with biophysical affinity measurements, provided the first known small molecule known nanomolar inhibitors of PHGDH and valuable tools for interrogating the biology of this target.
(b) SPR titration data for NADH binding to full length PHGDH, Kd = 0.4 ± 0.03 μM determined from a steady state fit, with the kinetic fit curve shown in the inset. […] No label is printed directly beside the Kd values; 'Spot 1' and 'Spot 2' are printed at the top of the plots.

Chain of Apo InhA (P9WGR1 whole entry, looked up): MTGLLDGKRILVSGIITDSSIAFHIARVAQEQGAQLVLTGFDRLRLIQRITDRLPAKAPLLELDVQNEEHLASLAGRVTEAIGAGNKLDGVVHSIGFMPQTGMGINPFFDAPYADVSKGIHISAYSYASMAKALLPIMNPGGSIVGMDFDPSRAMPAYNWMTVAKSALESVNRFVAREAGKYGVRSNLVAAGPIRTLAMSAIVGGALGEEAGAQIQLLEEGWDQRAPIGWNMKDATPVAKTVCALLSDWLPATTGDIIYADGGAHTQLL
Chain of InhA.NADH (P9WGR1 whole entry, looked up): as above
Chain of InhA.NAD+ (P9WGR1 whole entry, looked up): as above

For the compound `NC(=O)c1cc2cc(F)ccc2[nH]1` [Compound 2, 5-fluoroindole-2-carboxamide], in assay [1], the Kd was 980 ± 60 µM.
Regarding `COc1cc2[nH]c(C(=O)N[C@H](CO)c3ccccc3)cc2cc1Cl` [Compound 4], the affinity entry at PHGDH (method not stated) is given as “single digit”.
`O=C(O)c1ccc([C@@H](CO)NC(=O)c2cc3cc(Cl)ccc3[nH]2)cc1` [Compound 5]: the “fold improvement in affinity” value on PHGDH (relative to compound 4) was 10 fold.
As for `Cc1c(CC(=O)NC2CCC(CC(=O)N3CCN(CC(=O)CN)C(=O)C3Cc3ccccc3)CC2)sc2ccccc12` (centres unmarked) [Compound 6], the figures for the Kd at Apo InhA, at InhA.NADH and on InhA.NAD+ were above 100 µM, 0.3 ± 0.2 µM and 13.4 ± 4.3 µM, respectively.
As to `CNC(=O)CN(Cc1ccc(C)cc1)C(=O)C[C@H]1CC[C@H](CC(=O)c2nnn(Cc3ccccc3)c2C)CC1` [Compound 7], the values for the Kd at Apo InhA, on InhA.NADH and on InhA.NAD+ were above 100 µM, 0.09 ± 0.06 µM and 46.7 ± 11.6 µM, respectively.
Regarding `CNC(=O)c1cnc(NC2CCN(c3ccccn3)CC2)c(NCc2ccc(F)c(Oc3ccccc3)c2)c1` [Compound 8], the Kd is above 100 µM on Apo InhA, 0.3 ± 0.1 µM at InhA.NADH and above 100 µM on InhA.NAD+.
Take `CNC(=O)CN(C(=O)Cc1ccc(-n2cccn2)cc1)C1CCN(c2ccccn2)CC1` [Compound 9]: the Kd at Apo InhA is above 100 µM; at InhA.NADH, 36.8 ± 3.3 µM; at InhA.NAD+ it was above 100 µM.
For `CNC(=O)C1CC(NC(=O)C(NC(=O)c2ccc(Cn3cccn3)cc2)[C@@H](C)OC(C)(C)C)CN1C(=O)c1ccccc1` (some centres unmarked) [Compound 10], the figures for the Kd at Apo InhA, on InhA.NADH and at InhA.NAD+ were above 100 µM, 0.06 ± 0.03 µM and 49 ± 2.9 µM, respectively.
`CCCc1cc(C(=O)N2CCC(C(=O)NC(CC(=O)NC)c3cccc(C(F)(F)F)c3)(c3ccc(Br)cc3)CC2)n(C)n1` (centres unmarked) [Compound 11]: the figures for the Kd at Apo InhA, on InhA.NADH and on InhA.NAD+ were 12.4 ± 1.4 µM, 5 ± 1.2 µM and 0.3 ± 0.1 µM, respectively.
`CNC(=O)C1CCCN1C(=O)CC1CCC(NC(=O)C2CC(c3ccccc3)CN2)CC1` (centres unmarked) [Compound 12]: the Kd at Apo InhA was above 100 µM; on InhA.NADH, 6.3 ± 2.6 µM; at InhA.NAD+ it was above 100 µM.
Regarding `NC(=O)C1=CN([C@@H]2O[C@H](COP(=O)(O)OP(=O)(O)OC[C@H]3O[C@@H](n4cnc5c(N)ncnc54)[C@H](O)[C@@H]3O)[C@@H](O)[C@H]2O)C=CC1` [NADH], the Kd on full length PHGDH [2] stood at 0.33 ± 0.08 µM; in assay [3] it was 6.7 ± 0.5 µM; at full length PHGDH [4] (SPR steady state fit, full length PHGDH), 0.4 ± 0.03 µM. For the same compound, at full length PHGDH [2], the “N (stoichiometry)” value is on record as 0.78 ± 0.01. Besides, the “fold tighter binding to the full-length protein than to the NAD binding domain” value on full length PHGDH [4] (combination of ITC and SPR measurements) is recorded as “approximately 20 fold”.
